Laboratory results: ChEMBL document CHEMBL5034017, “Structural Insights into Schistosoma mansoni Carbonic Anhydrase (SmCA) Inhibition by Selenoureido-Substituted Benzenesulfonamides” (J Med Chem, 2021)
Active and inactive are the calls of the source. The rule behind the calls is not given here.

Columns and labels:
[1] = Inhibition of recombinant Schistosoma manson carbonic anhydrase pre-incubated with enzyme for 15 mins by phenol red dye based stopped flow CO2 hydration assay; parameters: species or system Schistosoma mansoni
[2] = Selectivity ratio of Ki for inhibition of recombinant human carbonic anhydrase 2 to Ki for inhibition of recombinant Schistosoma manson carbonic anhydrase; type: toxicity
Schistosoma mansoni [3] = assay: Antischistosomal activity against Schistosoma mansoni Puerto-Rican infected in Swiss Webster mouse assessed as worm burden reduction at 100 mg/kg, ip administered at 42, 44 and 46 hrs post infection and measured after 2 weeks; type: functional, organism-based
Schistosoma mansoni [4] = assay: Antischistosomal activity against Schistosoma mansoni Puerto-Rican infected in Swiss Webster mouse assessed as worm burden reduction at 50 mg/kg, ip administered at 42, 44 and 46 hrs post infection and measured after 2 weeks; type: functional, organism-based

Structure (SMILES) | Ki [1] [nM] | Ratio Ki [2] | Activity (Schistosoma mansoni [3]) | Activity (Schistosoma mansoni [4])
COc1ccccc1NC(=[Se])NCCc1ccc(S(N)(=O)=O)cc1 | 6.1 | 0.7 |  | 
NS(=O)(=O)c1ccc(NC(=[Se])Nc2ccccc2F)cc1 | 5.7 | 1.1 |  | 
NS(=O)(=O)c1ccc(NC(=[Se])Nc2ccc(F)cc2)cc1 | 76.8 | 0.9 |  | 
NS(=O)(=O)c1ccc(CCNC(=O)Nc2ccc(I)cc2)cc1 | 13.3 | 0.6 |  | 
NS(=O)(=O)c1ccc(CCNC(=[Se])Nc2ccccc2Cl)cc1 | 5.8 | 0.6 | inactive | 
NS(=O)(=O)c1ccc(CCNC(=[Se])Nc2cccc(C(F)(F)F)c2)cc1 | 4.5 | 0.97 |  | 
NS(=O)(=O)c1ccc(NC(=[Se])Nc2ccccc2)cc1 | 83.7 | 0.6 | inactive | 
NS(=O)(=O)c1ccc(NC(=O)Nc2ccc(F)cc2)cc1 [SLC-0111] | 54.3 | 1.7 |  | inactive
CC(=O)Nc1nnc(S(N)(=O)=O)s1 [ACETAZOLAMIDE] | 42.5 | 0.3 |  | 
NS(=O)(=O)c1ccc(NC(=[Se])Nc2ccccc2Cl)cc1 | 6.8 | 0.6 |  | 
NS(=O)(=O)c1cccc(NC(=[Se])Nc2ccc(F)cc2)c1 | 91.4 | 4.2 |  | 
NS(=O)(=O)c1ccc(NC(=S)Nc2ccc(F)cc2)cc1 | 23.3 | 0.6 |  | 
NS(=O)(=O)c1ccc(CCNC(=[Se])Nc2ccc(I)cc2)cc1 | 4.7 | 12.2 |  | 
NS(=O)(=O)c1ccc(CCNC(=[Se])Nc2ccccc2)cc1 | 3.2 | 1.7 |  | 
NS(=O)(=O)c1ccc(CCNC(=S)Nc2ccc(I)cc2)cc1 | 37.6 | 0.2 |  | 
NS(=O)(=O)c1ccc(CCNC(=[Se])Nc2ccccc2F)cc1 | 7.9 | 1 |  | 
NS(=O)(=O)c1cccc(NC(=[Se])Nc2ccccc2)c1 | 426 | 0.8 |  | 
NS(=O)(=O)c1ccc(CCNC(=[Se])Nc2ccc(Br)cc2)cc1 | 1.7 | 1.05 |  | 
NS(=O)(=O)c1ccc(CCNC(=[Se])Nc2ccc3ccccc3c2)cc1 | 84.9 | 1.1 |  | 
NS(=O)(=O)c1ccc(NC(=[Se])Nc2cccc(C(F)(F)F)c2)cc1 | 1.5 | 4.1 |  | 
